Data published in paper PMC9157728, “Albumin Binder–Conjugated Fibroblast Activation Protein Inhibitor Radiopharmaceuticals for Cancer Therapy” (Journal of Nuclear Medicine, 2022).

How the values were obtained:
[1] = Stability in vitro in saline and human serum (radio-HPLC); type: in vitro ADME; conditions: 7 d
Description: The radiolabeling of ^68Ga, ^86Y, and ^177Lu was performed by incubation with 50 nmol of precursor at pH 4.5–5.0 at 90°C for 10 min. The product was purified by C18 column extraction, and the radiochemical purity was determined by high-performance liquid chromatography equipped with a radioactivity detector. The stability of ^177Lu-TEFAPI-06 and ^177Lu-TEFAPI-07 in saline and human serum was monitored from 2 to 168 h using radio–high-performance liquid chromatography ([13]). More details about the radiochemistry, the quality control testing, and the stability assay can be found in the supplemental materials (section 3).

[2] = test system: pancreatic cancer PDX tumors; test: SPECT imaging in pancreatic cancer PDX-bearing mice; type: in vivo
Description: SPECT scans were performed on a Mediso nanoSPECT/CT imaging system. ^177Lu-TEFAPI-06 or ^177Lu-TEFAPI-07 SPECT imaging was performed on pancreatic cancer PDX–bearing mice at the indicated time points after intravenous injection of 37 MBq of ^177Lu-TEFAPI-06 or ^177Lu-TEFAPI-07, respectively.

[3] = Ex vivo biodistribution study in PDX-bearing mice
Description: PDX-bearing mice were injected with 925.0 kBq of ^177Lu-TEFAPI-06 or ^177Lu-TEFAPI-07 for an ex vivo biodistribution study. The mice were killed at 24 h and 96 h after injection, the counts of the different organs were measured with a γ-counter, and the data were normalized to percentage injected dose (%ID)/g using 1% of total counts.

[4] = test system: pancreatic cancer PDX tumors; test: Radiotherapy study in pancreatic cancer PDX-bearing mice (tumor growth); type: in vivo; conditions: 1.85 MBq or 3.7 MBq, vs saline or 3.7 MBq ^177Lu-FAPI-04
Description: (§1) ^68Ga-FAPI-04 PET imaging was performed to evaluate the tumor volume, and the mice were treated when their average tumor volume reached 35 mm^3. The PDX-bearing mice (6 groups, 7–9 mice per group) were treated by saline, 3.7 MBq of ^177Lu-FAPI-04, 1.85 MBq of ^177Lu-TEFAPI-06, 3.7 MBq of ^177Lu-TEFAPI-06, 1.85 MBq of ^177Lu-TEFAPI-07, or […] of ^177Lu-TEFAPI-07. Tumor volume and body weight were monitored every 2 or 3 d, and the animals were euthanized when the tumor volume exceeded 1,000 mm^3. Histopathologic staining was performed with an antihuman FAP monoclonal antibody (ab207178; Abcam), and hematoxylin and eosin staining was performed as previously described ([29]).

[5] = Radiotherapy study: body weight and hematoxylin and eosin staining of main organs; type: in vivo; conditions: pancreatic cancer PDX-bearing mice after treatment
Description: as §1

N#C[C@@H]1CC(F)(F)CN1C(=O)CNC(=O)c1ccnc2ccc(OCCCN3CCN(C(=O)[C@H](CCCCNC(=O)CN4CCN(CC(=O)[O-])CCN(CC(=O)[O-])CCN(CC(=O)[O-])CC4)NC(=O)CCCC(=O)N[C@@H](CCCCNC(=O)CCCc4ccc(I)cc4)C(=O)O)CC3)cc12.[177Lu+3] [^177Lu-TEFAPI-06]
radiochemistry purity after incubation in human serum ([1]; human serum): over 90%
radiochemistry purity after incubation in saline ([1]; saline): over 90%
tumor uptake at 6 d after injection (SPECT imaging and biodistribution) ([2]; 6 d after the injection): still notable
tumor-to-nontargeted-tissue signal ratios on SPECT ([2]; PDX tumor models, until 144 h after injection): high
Blood uptake ([3]; 24 h after injection): 12.32 %ID/g
Bone uptake ([3]; 24 h after injection): 1.32 %ID/g
Brain uptake ([3]; 24 h after injection): 0.37 %ID/g
Fat uptake ([3]; 24 h after injection): 1.86 %ID/g
Heart uptake ([3]; 24 h after injection): 3.70 %ID/g
Kidney uptake ([3]; 24 h after injection): 3.20 %ID/g
Large intestine uptake ([3]; 24 h after injection): 1.66 %ID/g
Liver uptake ([3]; 24 h after injection): 2.98 %ID/g
Lung uptake ([3]; 24 h after injection): 4.33 %ID/g
Muscle uptake ([3]; 24 h after injection): 1.09 %ID/g
Pancreas uptake ([3]; 24 h after injection): 2.01 %ID/g
Small intestine uptake ([3]; 24 h after injection): 2.55 %ID/g
Spleen uptake ([3]; 24 h after injection): 3.00 %ID/g
Stomach uptake ([3]; 24 h after injection): 1.75 %ID/g
Tumor uptake ([3]; 24 h after injection): 8.68 %ID/g
tumor-to-liver ratio ([3]; 24 h after injection): 2.91
Blood uptake ([3]; 96 h after injection): 2.25 %ID/g
Bone uptake ([3]; 96 h after injection): 0.35 %ID/g
Brain uptake ([3]; 96 h after injection): 0.09 %ID/g
Fat uptake ([3]; 96 h after injection): 1.55 %ID/g
Heart uptake ([3]; 96 h after injection): 1.51 %ID/g
Kidney uptake ([3]; 96 h after injection): 2.66 %ID/g
Large intestine uptake ([3]; 96 h after injection): 0.53 %ID/g
Liver uptake ([3]; 96 h after injection): 1.74 %ID/g
Lung uptake ([3]; 96 h after injection): 1.95 %ID/g
Muscle uptake ([3]; 96 h after injection): 0.45 %ID/g
Pancreas uptake ([3]; 96 h after injection): 0.75 %ID/g
Small intestine uptake ([3]; 96 h after injection): 0.61 %ID/g
Spleen uptake ([3]; 96 h after injection): 3.66 %ID/g
Stomach uptake ([3]; 96 h after injection): 0.54 %ID/g
Tumor uptake ([3]; 96 h after injection): 7.33 %ID/g
tumor-to-liver ratio ([3]; 96 h after injection): 4.21
tumor growth after treatment [4]: remarkable suppression of tumor growth
side effects, hematoxylin and eosin staining of the main organs [5]: almost negligible
